Measurements: US4560545A, “Basic aluminum magnesium carbonate” (Anphar S.A., priority 1978, dated 1985)
Where two headings read alike, the source gives them in different places.

Legend:
[1] = pH stat, pH 4, suspension in water
[2] = 4 hour pyloric ligature of the stomach: pH and total acid content of stomach contents; details: rats, 31.25-500 mg/kg orally 1 hour before sacrifice
Description: (§1) In a further series of experiments the detergent action of bile was used to sensitize the rat stomach to the ulcerogenic action of indomethacin.

ulcers [3] = assay: 18 hour pyloric ligature: incidence of ulcers; type: in vivo; details: rats, 18 hours ligature
ulcers [4] = assay: bile-sensitized stomach, ulcerogenic action of indomethacin; details: rat stomach sensitized with bile, 31.25-125 mg/kg orally
Description: as §1

gastric acid secretion = details: human volunteers, pentagastrin 6 μg/kg i.m., 1 g suspension 30 minutes later, versus aluminium hydroxide gel
Protocol: Gastric acid secretion was induced by injection of pentagastrin (6 μg/kg i.m.). Thirty minutes later a suspension of 1 g of compound I or aluminium hydroxide was given (2 groups of 6 volunteers, double blind parallel). Samples of gastric juice were taken before giving pentagastrin (basal level), 30 minutes after injection of pentagastrin and at intervals of 30, 60, 90 and 120 minutes after giving the antacids. In each case the pH, free acid content and pepsin content were measured.

[5] = Protocol: The ability of compound I to absorb bile acids was measured at pH 7 and pH 4 (the analytical method was based on the reaction between sulphuric acid, furfural and cholic acid; Pettenkofer, Ann. Chem. Pharm. 52, 90, 1884). The product was suspended in the appropriate buffer and a solution of the bile acid or ox bile was added, samples being taken at intervals of time.
[6] = antacid activity in simulated gastric juice (modified Holbert technique, automatic titrator); type: physicochemical; details: for Vol. of gastric juice added: added at 0.7 ml/min. until pH fell below 3; for pH of suspension after 1 min.: about 0.125 g powder in 20 ml, 37° C.
Protocol: Approximately 0.125 g of powder was added to 20 ml of simulated gastric juice (U.S.P.) and stirred vigorously at 37° C. The pH was registered at 1, 5 and 10 minutes and then the automatic burette was started and synthetic gastric juice was added at a rate of 0.7 ml/min. until the pH fell below 3. The time taken and the amount of gastric juice added to reach pH 3 was observed.

pepsin = details: rats, 4 hour ligature; for reduction of pepsin enzyme activity of gastric juice: at the higher doses
Description: as §1

[7] = gastric juice DP, double quantity of pepsin
[8] = gastric juice DP, with double quantity of pepsin
[9] = gastric juice N, normal U.S.P. simulated gastric juice
[10] = gastric juice SP, without pepsin

Row | Molecule | effect on pH of the stomach contents [2] | reduction of total acid content [2] | reduction of the incidence of ulcers (inhibition) (ulcers [4]) | Vol. of gastric juice added [6, 7] [mL] | pH of suspension after 1 min. [6, 8] | pH of suspension after 1 min. [6, 9] | Vol. of gastric juice added ([6]; gastric juice N, normal U.S.P.) [mL] | pH of suspension after 1 min. [6, 10] | Vol. of gastric juice added [6, 10] [mL] | reduction of pepsin enzyme activity of gastric juice (pepsin) | other results
1 | basic aluminium magnesium carbonate [compound I] | dose dependent increases in the pH of the stomach contents | up to 85% | up to 54% | 22.36 | 4.55 | 4.25 | 21.2 | 4.00 | 10.9 | 78.9% | acid-binding capacity [1]: higher at pH 4 than any of the other substances; reduction in the incidence of ulcers compared with placebo treated controls (ulcers [3]; 31.25 mg/kg orally at the same time as the operation): 58%; antipepsin effect (pepsin content of gastric juice) (gastric acid secretion): greater antipepsin effect; reduction of free hydrochloric acid levels in gastric juice (gastric acid secretion): reduced the free hydrochloric acid levels more rapidly and had a longer duration of action than aluminium hydroxide gel; Percentage absorption of bile acids ([5]; Cholic Acid, Buffer pH 4, 1 hr): 80.5 Percentage; Percentage absorption of bile acids ([5]; Cholic Acid, Buffer pH 4, 3 hr): 86.3 Percentage; Percentage absorption of bile acids ([5]; Cholic Acid, Buffer pH 7, 1 hr): 0 Percentage; Percentage absorption of bile acids ([5]; Cholic Acid, Buffer pH 7, 3 hr): 12 Percentage; Percentage absorption of bile acids ([5]; Ox bile, Buffer pH 4, 1 hr): 69.0 Percentage; Percentage absorption of bile acids ([5]; Ox bile, Buffer pH 4, 3 hr): 70.0 Percentage; Percentage absorption of bile acids ([5]; Ox bile, Buffer pH 7, 1 hr): 17.3 Percentage; Percentage absorption of bile acids ([5]; Ox bile, Buffer pH 7, 3 hr): 25.8 Percentage; Percentage absorption of bile acids ([5]; Taurocholic acid, Buffer pH 4, 1 hr): 65.4 Percentage; Percentage absorption of bile acids ([5]; Taurocholic acid, Buffer pH 4, 3 hr): 71.7 Percentage; Percentage absorption of bile acids ([5]; Taurocholic acid, Buffer pH 7, 1 hr): 0.6 Percentage; Percentage absorption of bile acids ([5]; Taurocholic acid, Buffer pH 7, 3 hr): 20.8 Percentage; buffering capacity ([6]; U.S.P. simulated gastric juice): highest buffering capacity; velocity of neutralisation ([6]; pH after 1 minute in the optimal zone, pH 3-5): high velocity of neutralisation; ability to absorb acid in the presence of pepsin ([6]; simulated gastric juice with pepsin versus without): increased ability to absorb acid in the presence of pepsin; reduction of pepsin enzyme activity, pH of the gastric juice readjusted to 2 (pepsin; higher doses, pH readjusted to 2 (optimal for pepsin activity)): 32.5%
2 | Magaldrate U.S.P. [F2] | – | – | – | 2.40 | 2.65 | 1.95 | 1.70 | 1.40 | 1.92 | – | –
3 | [OH][Al]([OH])[OH] [aluminium hydroxide, reference compound] | much less influence on pH | 12% | 32% | – | – | – | – | – | – | without effect on the pepsin activity | reduction in ulceration (ulcers [3]; 125 mg/kg): 43%
4 | dry aluminium hydroxide gel U.S.P. [F1] | – | – | – | 4.80 | 2.79 | 2.93 | 7.40 | 3.30 | 17.43 | – | –
